The test system of series [1] is Murine leukemia L1210 cells. Nature of the series: In vitro growth inhibition of L1210 cells (MTT, 72 hr). Format: cell-based. Conditions: Mus musculus, read-out: L1210 IC50. On the procedure:
(§1) The reagents for tissue culture were purchased from GIBCO (Grand Island, N.Y.). 5-Dimethylthiazol-2-yl)-2,5-diphenyl tetrazolium bromide (MTT) was purchased from Sigma Chemical Company (St. Louis, Mo.). All agents were prepared as 2 mg/ml stock solutions in DMSO. MTT was prepared as a 1 mg/ml stock solution in Dulbecco's phosphate buffered saline (PBS). All stocks were stored frozen in the dark at -20° C.
(§2) Clone A human colon cancer cells were isolated from the heterogeneous DLD-1 colon tumor line and maintained as previously described (Dexter, D. L.; Barbosa, J. A.; Calabresi, P. Cancer Research 1979, 39, 1020; Dexter, D. L.; Spremulli, E. M.; Fligiel, A.; Barbosa, J. A.; Vogel, R.; Van Vorhees, A.; Calabresi, P. Am. J. Med. 1981, 71, 949.). Murine leukemia L1210 cells were maintained in RPMI-L medium as described (Chen, S.-F.; Ruben, R. L.; Dexter, D. L. Cancer Research 1986, 46, 5014.). All cell lines were incubated at 37° C. in a humidified atmosphere of 5% CO2 -95% air.
(§3) Exponentially growing L1210 cells (1×10^3), or Clone A cells (8×10^2) in 0.1 ml medium were seeded in a 96-well microtiter plate on day 0. On day one, 0.1 ml aliquots of medium containing graded concentrations of test compounds were added to the cell plates. After incubation at 37° C. in a humidified incubator for 72 hr, the plates containing L1210 cells were centrifuged briefly and 100 μl of the growth medium was removed. Cell cultures were incubated with 50 μl of MTT for 4 h at 37° C. (12). The resulting purple formazan precipitate was solubilized with 200 μl of 0.04 N HCl in isopropyl alcohol. Absorbance was read in a Titertek Multiskan MCC scanning well spectrophotometer (Flow Laboratories) at a test wavelength of 570 nm and a reference wavelength of 630 nm. The absorbances were stored on a floppy disk on an IBM-XT and uploaded onto a VAX computer. IC50 values were determined by a computer program that fit the data to the following equation:
(§4) Y=((Am -Ao)/(1+(X/IC50)^n))+Ao
(§5) where Am =absorbance of the control cells; Ao =absorbance of the cells in the presence of highest compound concentration; Y=observed absorbance; X=compound concentration; IC50 =dose of compound that inhibits the number of population doublings of cells to one half that of the number of population doublings of the control cells; and n equals the slope of the straight portion of the curve.
(§6) The values reported in the table are from at least one experiment performed in eight replicates. If more than one experiment was performed, the number reported is the average of all the trials

Series [2] has as its system Clone A human colon cancer cells. Nature of the series: In vitro growth inhibition of Clone A cells (MTT, 72 hr). Type of series: cell-based. Conditions: read-out: Clone A IC50. On the procedure: as §1, §2, §3, §4, §5, §6
Series [3] concerns MX-1 human mammary carcinoma. The series is described as follows: In vivo human tumor xenograft MX-1 in nude mice. Conditions: for Tumor Growth Inhibition activity against MX-1 (in words): NCI criteria. The source says: The DLD-2 human colon tumor and MX-1 human mammary carcinoma, were originally obtained from a surgically-removed primary colon carcinoma or breast tumor respectively. The human tumor lines were maintained by serial passage in athymic nude mice. The MX-1 human mammary carcinoma is an established tumor used by the NCI. The DLD-2 human colon tumor has been well characterized. (Dexter, D. L.; Spremulli, E. N.; Matook, G. M.; Diamond, I.; Calabresi, P. Cancer Research 1982, 42, 5010; Dexter, D. L.; Barbosa, J. A.; Calabresi, P. Cancer Research 1979, 39, 1020.)
The mice used in these experiments were outbred Swiss mice or CD-1 mice bearing the nude (nu/nu) gene. On Day 0, male and female mice weighing 22-30 g are inoculated with 0.2 mL of a 25% tumor mince. This mince is prepared by mincing fresh tumor tissue, grown subcutaneously in passage mice, in sterile physiological saline. Palpable tumors weighing approximately 50 mg appear in the mice within 7-10 days after inoculation. The mice are pair matched by tumor weight and sex into groups of ten each and the test compounds and vehicle control are administered intravenously (i.v.) once daily for nine consecutive days. A >20% decrease in body weight on Day 5 following compound administration is considered an indication of toxicity. Tumor measurements and body weights are recorded once a week. Fifteen to eighteen days after the initial injection the mice are weighed, sacrificed, and the tumors excised and weighed.
The efficacy of the test compounds is determined by the extent of tumor growth inhibition in treated versus vehicle-treated control mice. Initial tumor weights (mg) are calculated from the tumor dimensions (mm) obtained from caliper measurements, using the formula for a prolate ellipsoid (mg of tumor weight=(length×width^2)/2). Net tumor weights are calculated for each of the treated groups and the vehicle-treated control group by subtracting the initial tumor weight from the final tumor weight (Day 15-18). Results are expressed as a percentage decrease relative to the mean tumor weight for the control vehicle-treated group.
Tumor Growth Inhibition= [formula]
The evaluation criteria of the National Cancer Institute for activity in in vivo cancer models were used. Tumor growth inhibition of 58-89% against the various xenografts is considered moderate activity, and inhibition of ≥90% is considered good to excellent activity. Actual tumor regressions (IR=incomplete regression; FR=full regression) indicate excellent to outstanding activity.
Background: Xenograft models place foreign cells or tissue in a host animal.

Where [4] appears, read: Mus musculus, iv, 216 h, read-out: MX-1 percent tumor growth inhibition.
Where [5] appears, read: i.v. once daily for nine days, nude mice.

≈ marks a conversion by molar mass, not a printed value. Where two headings read alike, the source gives them in different places.

The term IC50 denotes the point on the concentration scale where inhibition reaches its midpoint. Regarding `Cc1cnc2c(c1)cc1c3c(cc([N+](=O)[O-])cc32)C(=O)N(C[C@H](C)NCCN[C@@H](C)CN2C(=O)c3cc([N+](=O)[O-])cc4c3c(cc3cc(C)cnc34)C2=O)C1=O` [Example 26], the IC50 in series [1] (L1210, 72 h) was determined as 0.018 mg/L (≈ 0.0238 µM); in series [2] (72 h) it was 0.012 mg/L (≈ 0.0159 µM). In addition, the inhibition in vivo at 6.2 mg/kg in series [3] (setting [4]) was determined as 22%.

In general, solubility refers to the dissolved amount per volume that the medium holds. High values mean much dissolved substance, low ones little dissolved substance. For `CS(=O)(=O)O.CS(=O)(=O)O.O=C1c2cc([N+](=O)[O-])cc3c2c(cc2cccnc23)C(=O)N1CCNCCNCCN1C(=O)c2cc([N+](=O)[O-])cc3c2c(cc2cccnc23)C1=O` [Example 6, 1,2-bis-[2-(3-Nitro-5-azaphenanthrene-1,10-dicarboximido)ethylamino]ethane Dihydromethanesulfonate], the IC50 was 0.041 mg/L in series [1] (L1210, 72 h) and 0.005 mg/L in series [2] (72 h). This compound also yielded a solubility in the series “Solubility in water” of 0.33 mg/mL. Moreover, in series [3] (setting [4]), the inhibition in vivo at 12.5 mg/kg was 81%. Besides, the “Tumor Growth Inhibition activity against MX-1 (in words)” value in series [3] (setting [5]) is given as “moderate to excellent”.

Regarding `Cc1cnc2c(c1)cc1c3c(cc([N+](=O)[O-])cc32)C(=O)N(CCNCCNCCN2C(=O)c3cc([N+](=O)[O-])cc4c3c(cc3cc(C)cnc34)C2=O)C1=O` [Example 23], the IC50 in series [1] (L1210 cells, 72 hr, MTT) is 0.042 mg/L (≈ 0.0578 µM); in series [2] (Clone A cells, 72 hr, MTT), 0.043 mg/L (≈ 0.0592 µM). In “Solubility in water”, this compound returned a solubility of 0.12 mg/mL (≈ 165 µM). For the same compound, the inhibition in vivo at 25 mg/kg in series [3] (Mus musculus, iv, 216 h, 25 mg/kg, i.v. once daily for nine days, nude mice, read-out: MX-1 percent tumor growth inhibition) worked out at 0%.

As to `CS(=O)(=O)O.O=C1c2ccccc2C(=O)c2c1cc1c3c(cccc23)C(=O)N(CCCCNCCCN2C(=O)c3cccc4c5c(cc(c34)C2=O)C(=O)c2ccccc2C5=O)C1=O` [Example 100, 4-[3-(7,12-Dihydro-7,12-dioxobenz[a]anthracene-4,5-dicarboximido)propylamino]-1-(7,12-dihydro-7,12-dioxobenz[a]anthracene-4,5-dicarboximido)butane Hydromethanesulfonate], the IC50 in series [1] (L1210 cells, 72 hr, MTT) is 0.014 mg/L; in series [2] (Clone A cells, 72 hr, MTT), 0.07 mg/L. In addition, the solubility in the series “Solubility in water” was determined as 0.16 mg/mL. Moreover, in series [3] (Mus musculus, iv, 216 h, 20 mg/kg, i.v. once daily for nine days, nude mice, read-out: MX-1 percent tumor growth inhibition), the inhibition in vivo at 20 mg/kg was 24%.

`CS(=O)(=O)O.O=C1c2cccc3c2c(cc2ccc(F)cc23)C(=O)N1CCCCNCCCN1C(=O)c2cccc3c2c(cc2ccc(F)cc23)C1=O` [Example 56, 4-[3-(6-Fluorophenanthrene-1,10-dicarboximido)propylamino]-1-(6-fluorophenanthrene-1,10-dicarboximido)butane Hydromethanesulfonate]: the IC50 in series [1] (L1210, 72 h) was 0.365 mg/L; in series [2] (72 h), 0.222 mg/L. Further, the solubility in the series “Solubility in water” worked out at 0.04 mg/mL.

For the compound `CCc1ccc2cc3c4c(cccc4c2c1)C(=O)N(CCCCNCCCN1C(=O)c2cccc4c2c(cc2ccc(CC)cc24)C1=O)C3=O.CS(=O)(=O)O` [Example 47, 4-[3-(6-Ethylphenanthrene-1, 10-dicarboximido)propylamino]-1-(6-ethylphenanthrene-1, 10-dicarboximido)butane Hydromethanesulfonate], the IC50 in series [1] (L1210, 72 h) amounted to 0.378 mg/L; in series [2] (72 h) it was 0.763 mg/L. In “Solubility in water”, this compound returned a solubility of 0.15 mg/mL.

As for `CS(=O)(=O)O.O=C1c2cccc3c2c(cc2ccoc23)C(=O)N1CCCCNCCCN1C(=O)c2cccc3c2c(cc2ccoc23)C1=O` [Example 80, 4-[3-(Naphtho[1,2-b]furan-5,6-dicarboximido)propylamino]-1-(naphtho[1,2-b]furan-5,6-dicarboximido)butane Hydromethanesulfonate], the IC50 in series [1] (L1210 cells, 72 hr, MTT) was determined as 0.389 mg/L; in series [2] (Clone A cells, 72 hr, MTT), 0.635 mg/L. In “Solubility in water”, this compound had a solubility of 0.42 mg/mL.

Regarding `CS(=O)(=O)O.CS(=O)(=O)O.CS(=O)(=O)O.Nc1cc2c3c(cc4cccnc4c3c1)C(=O)N(CCCCNCCCN1C(=O)c3cc(N)cc4c3c(cc3cccnc34)C1=O)C2=O` [Example 9, 4-[3-(3-Amino-5-azaphenanthrene-1,10-dicarboximido)propylamino]-1-(3-amino-5-azaphenanthrene-1, 10-dicarboximido)butane Trihydromethanesulfonate], the IC50 in series [1] (L1210 cells, 72 hr, MTT) worked out at 0.182 mg/L; in series [2] (Clone A cells, 72 hr, MTT), 0.166 mg/L. In “Solubility in water”, this compound yielded a solubility of 11 mg/mL.

As to `C[C@H](CNC[C@@H](C)N1C(=O)c2cc([N+](=O)[O-])cc3c2c(cc2cccnc23)C1=O)NC[C@@H](C)N1C(=O)c2cc([N+](=O)[O-])cc3c2c(cc2cccnc23)C1=O` [Example 21], the IC50 was determined as 0.042 mg/L (≈ 0.0567 µM) in series [1] (L1210 cells, 72 hr, MTT) and 0.005 mg/L (≈ 0.00675 µM) in series [2] (Clone A cells, 72 hr, MTT). This compound also had a solubility in “Solubility in water” of 7.7 mg/mL (≈ 10400 µM).

Consider `CS(=O)(=O)O.CS(=O)(=O)O.C[C@@H](CN1C(=O)c2cc([N+](=O)[O-])cc3c2c(cc2cccnc23)C1=O)NCCN[C@@H](C)CN1C(=O)c2cc([N+](=O)[O-])cc3c2c(cc2cccnc23)C1=O` [Example 20, (S,S)-1,2-bis-[2-(3-Nitro-5-azaphenanthrene-1, 10-dicarboximido)-1-methylethylamino]ethane Dihydromethanesulfonate], for which, in series [1] (L1210, 72 h), the IC50 worked out at 0.012 mg/L. Moreover, in “Solubility in water”, the solubility came to 3.33 mg/mL. In addition, the inhibition in vivo at 6.2 mg/kg in series [3] (setting [4]) came to 95%. Further, the responders at 6.2 mg/kg in series [3] (Mus musculus, iv, 216 h, read-out: MX-1 tumor regressions, IR=incomplete regression) is 11.1%. The “Tumor Growth Inhibition activity against MX-1 (in words)” value in series [3] (setting [5]) was “moderate to excellent”.

For `CS(=O)(=O)O.O=C1c2cccc3c2c(cc2ccc(C(F)(F)F)cc23)C(=O)N1CCCCNCCCN1C(=O)c2cccc3c2c(cc2ccc(C(F)(F)F)cc23)C1=O` [Example 44, 4-(3-[6-(Trifluoromethyl)phenanthrene-1,10-dicarboximido]propylamino)-1-[6-(trifluoromethyl)phenanthrene-1, 10dicarboximido]butane Hydromethanesulfonate], the IC50 in series [1] (L1210, 72 h) was found to be 0.888 mg/L; in series [2] (72 h) it was 1.01 mg/L. Moreover, the solubility in “Solubility in water” is 0.27 mg/mL.

In the case of `CS(=O)(=O)O.Cc1c2c3c(cccc3c3ccccc13)C(=O)N(CCCCNCCCN1C(=O)c3cccc4c3c(c(C)c3ccccc34)C1=O)C2=O` [Example 43, 4-[3-(9-Methylphenanthrene-1,10-dicarboximido)propylamino]-1-(9-methylphenanthrene-1, 10-dicarboximido)butane Hydromethanesulfonate], the IC50 in series [1] (L1210, 72 h) turned out to be 0.357 mg/L; in series [2] (72 h), 0.4 mg/L. In the series “Solubility in water”, this compound yielded a solubility of 0.04 mg/mL.

Regarding `CS(=O)(=O)O.O=C1c2cccc3c2c(cc2ccccc23)C(=O)N1CCCCNCCCN1C(=O)c2cccc3c2c(cc2ccccc23)C1=O` [Example 40, 4-[3-(Phenanthrene-1, 10-dicarboximido)propylamino]-1-(phenanthrene-1, 10-dicarboximido) butane Hydromethanesulfonate], the IC50 in series [1] (L1210, 72 h) stood at 0.098 mg/L; in series [2] (72 h), 0.412 mg/L. Further, the solubility in “Solubility in water” was found to be 0.06 mg/mL.
